{"source": "PubChem BioAssay AID1963852", "about": "(Molecular Pharmacology Branch, DTP, NCI, 2024)", "system": "282377-053-R-J1-PDC complex spheroid viability", "test": "Anticancer human tumor 282377-053-R-J1-PDC patient-derived colon adenocarcinoma cell line growth inhibition [POLQ]", "details": "for viability, T/C: stronger effect = lower value", "procedure": "Multicellular complex tumor spheroid response to Polymerase (POL) inhibitors (novobiocin, ART-558, RP6685) in combination with a variety of drugs and investigational agents in selected tumor cell lines\nThe POL inhibitors (novobiocin, ART-558, and RP6685) were evaluated both individually and in combination with standard of care and investigational anticancer small molecules within a complex spheroid model of solid tumors. . Complex spheroids include a stromal component modeled by human endothelial cells (HUVEC) and fibroblasts modeled by human mesenchymal stem cells (MSCs). The concentration ranges selected for each drug and investigational agent were based upon clinically achievable concentrations if the clinical Cmax of the agent was known.\nCompounds. The drugs and investigational agents: novobiocin (NSC847541), ART-558 (NSC835418), RP-6685 (NSC848927), peposertib (NSC802822), ceralasertib (NSC780249), elimusertib (NSC800525), camonsertib (NSC841442), AZD-1390 (NSC803789), olaparib (NSC753686), talazoparib (NSC767125), rucaparib (NSC756644), sotorasib (NSC818433), MRTX-1133 (NSC836407), SN-38 (NSC673596), topotecan (NSC609699), epotoside (NSC141540), doxorubicin (NSC123127), gemcitabine (NSC613327), 5-fluorouracil (NSC19893), paclitaxel (NSC125973), vemurafenib (NSC761431), MSA-2 (NSC828583), SN-011 (NSC837082), adavosertib (NSC754352), prexasertib (NSC758257), carboplatin (NSC241240) and oxaliplatin (NSC266046), were obtained from the National Cancer Institute (NCI) Developmental Therapeutics Program Chemical Repository (21). The FDA-approved anticancer drug set is available from the Developmental Therapeutics Program at https://dtp.cancer.gov/organization/dscb/obtaining/. […] The stock solutions were prepared in dimethyl sulfoxide (DMSO, Sigma-Aldrich, St. Louis, MO, cat. D2650), except for the platinum compounds which were prepared in saline (Quality Biological, Gaithersburg, MD, cat. 114-055-101), at 800-fold the tested concentration and stored at -70 degrees C prior to their use. All drugs and investigational agents were tested over a range starting from a high concentration at or near the clinical Cmax and decreasing in half-log increments. If the clinical Cmax for an agent had not been determined, the highest concentration tested was 10 microM, except for SN-38, which was tested at a high concentration of 1 microM.\nCell Culture. All cells were maintained in an incubator at 37 degrees C and 5% CO2 with 95% humidity. The PDC lines were cultured according to standard operating procedures established by the NCI PDMR (https://pdmr.cancer.gov). Table 3 of the manuscript, lists the cell lines along with the number of the three cell types plated to form the mct-spheroids and media for tumor cell growth. After thawing, all PDC lines, except 997537-175-T-J1-PDC and 415267-285-R-J2-PDC, were cultured in Matrigel-coated flasks prepared with a working solution of 1X Ham's F-12 nutrient mix, without supplementation (Thermo Fisher Scientific, cat. 11765054), 100 U/mL penicillin-streptomycin (Thermo Fisher Scientific, cat. 15140122), and 2.5% Matrigel (Corning Inc., Corning, NY, cat. 354248) for the first three passages. The two PDC lines 997537-175-T-J1-PDC and 415267-285-R-J2-PDC were cultured on uncoated flasks. The 857933-349-R-J2-PDC line was cultured in 6C/Colon 1B media containing advanced DMEM/F-12 (Thermo Fisher Scientific, cat. 12634028), 10 mM HEPES (Thermo Fisher Scientific, cat. 15630080), 1X GlutaMAX supplement (Thermo Fisher Scientific, cat. 35050061), 0.1 mg/mL primocin (InvivoGen, San Diego, CA, cat. ant-pm-2), 10% defined fetal bovine serum, heat inactivated (HyClone Laboratories Inc., Logan, UT, cat. SH30070.03HI), 50% L-WRN conditioned media (ATCC, cat. CRL-3276), 1.25 mM N-Acetyl-L-cysteine (Sigma-Aldrich, cat. A9165), 10 mM nicotinamide (Sigma-Aldrich, cat. N0636), 1X B-27 supplement (Thermo Fisher Scientific, cat. 17504044), 1X N-2 supplement (Thermo Fisher Scientific, cat. […]", "note": "Several values for one entry are separate records, joined by “and”; a condition that tells them apart may be missing. Identical values can stand only once.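 Note: spheroids exposed to compounds for seven days.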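 Throughout, for viability, T/C: 100% = DMSO vehicle control viability.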"}
{"smiles": "CCc1cc2c(N3CCc4c(cc(Cn5ccnc5)cc4-c4cn(C)nc4C(F)(F)F)C3=O)cc(C)nc2c(OC)n1", "note": "+ Cc1cccc(N(C)C(=O)C2C(O)CCN2c2nc(C)cc(C(F)(F)F)c2C#N)c1", "values": [{"measurement": "IC50", "setting": "curve of first compound, second compound 0.0316 µM", "result": "> 10", "unit": "µM"}, {"measurement": "IC50", "setting": "curve of first compound, second compound 0.1 µM", "result": "> 10", "unit": "µM"}, {"measurement": "IC50", "setting": "curve of first compound, second compound 0.316 µM", "result": "> 10", "unit": "µM"}, {"measurement": "IC50", "setting": "curve of first compound, second compound 1 µM", "result": "> 10", "unit": "µM"}, {"measurement": "IC50", "setting": "curve of first compound, second compound 3.16 µM", "result": "> 10", "unit": "µM"}, {"measurement": "IC50", "setting": "curve of first compound, second compound 10 µM", "result": "> 10", "unit": "µM"}, {"measurement": "viability, T/C", "setting": "second compound 0.0316 µM, first compound 0.0316 µM", "result": 104, "unit": "%"}, {"measurement": "viability, T/C", "setting": "second compound 0.0316 µM, first compound 0.1 µM", "result": 99.8, "unit": "%"}, {"measurement": "viability, T/C", "setting": "second compound 0.0316 µM, first compound 0.316 µM", "result": 89.7, "unit": "%"}, {"measurement": "viability, T/C", "setting": "second compound 0.0316 µM, first compound 1 µM", "result": 103, "unit": "%"}, {"measurement": "viability, T/C", "setting": "second compound 0.0316 µM, first compound 3.16 µM", "result": 108, "unit": "%"}, {"measurement": "viability, T/C", "setting": "second compound 0.0316 µM, first compound 10 µM", "result": 134, "unit": "%"}, {"measurement": "viability, T/C", "setting": "second compound 0.1 µM, first compound 0.0316 µM", "result": 85.9, "unit": "%"}, {"measurement": "viability, T/C", "setting": "second compound 0.1 µM, first compound 0.1 µM", "result": 102, "unit": "%"}, {"measurement": "viability, T/C", "setting": "second compound 0.1 µM, first compound 0.316 µM", "result": 91.2, "unit": "%"}, {"measurement": "viability, T/C", "setting": "second compound 0.1 µM, first compound 1 µM", "result": 91.2, "unit": "%"}, {"measurement": "viability, T/C", "setting": "second compound 0.1 µM, first compound 3.16 µM", "result": 112, "unit": "%"}, {"measurement": "viability, T/C", "setting": "second compound 0.1 µM, first compound 10 µM", "result": 117, "unit": "%"}, {"measurement": "viability, T/C", "setting": "second compound 0.316 µM, first compound 0.0316 µM", "result": 90.3, "unit": "%"}, {"measurement": "viability, T/C", "setting": "second compound 0.316 µM, first compound 0.1 µM", "result": 99.8, "unit": "%"}, {"measurement": "viability, T/C", "setting": "second compound 0.316 µM, first compound 0.316 µM", "result": 111, "unit": "%"}, {"measurement": "viability, T/C", "setting": "second compound 0.316 µM, first compound 1 µM", "result": 110, "unit": "%"}, {"measurement": "viability, T/C", "setting": "second compound 0.316 µM, first compound 3.16 µM", "result": 104, "unit": "%"}, {"measurement": "viability, T/C", "setting": "second compound 0.316 µM, first compound 10 µM", "result": 108, "unit": "%"}, {"measurement": "viability, T/C", "setting": "second compound 1 µM, first compound 0.0316 µM", "result": 111, "unit": "%"}, {"measurement": "viability, T/C", "setting": "second compound 1 µM, first compound 0.1 µM", "result": 102, "unit": "%"}, {"measurement": "viability, T/C", "setting": "second compound 1 µM, first compound 0.316 µM", "result": 114, "unit": "%"}, {"measurement": "viability, T/C", "setting": "second compound 1 µM, first compound 1 µM", "result": 89.9, "unit": "%"}, {"measurement": "viability, T/C", "setting": "second compound 1 µM, first compound 3.16 µM", "result": 108, "unit": "%"}, {"measurement": "viability, T/C", "setting": "second compound 1 µM, first compound 10 µM", "result": 107, "unit": "%"}, {"measurement": "viability, T/C", "setting": "second compound 3.16 µM, first compound 0.0316 µM", "result": 110, "unit": "%"}, {"measurement": "viability, T/C", "setting": "second compound 3.16 µM, first compound 0.1 µM", "result": 99.5, "unit": "%"}, {"measurement": "viability, T/C", "setting": "second compound 3.16 µM, first compound 0.316 µM", "result": 101, "unit": "%"}, {"measurement": "viability, T/C", "setting": "second compound 3.16 µM, first compound 1 µM", "result": 93.8, "unit": "%"}, {"measurement": "viability, T/C", "setting": "second compound 3.16 µM, first compound 3.16 µM", "result": 122, "unit": "%"}, {"measurement": "viability, T/C", "setting": "second compound 3.16 µM, first compound 10 µM", "result": 115, "unit": "%"}, {"measurement": "viability, T/C", "setting": "second compound 10 µM, first compound 0.0316 µM", "result": 96.8, "unit": "%"}, {"measurement": "viability, T/C", "setting": "second compound 10 µM, first compound 0.1 µM", "result": 98.3, "unit": "%"}, {"measurement": "viability, T/C", "setting": "second compound 10 µM, first compound 0.316 µM", "result": 97, "unit": "%"}, {"measurement": "viability, T/C", "setting": "second compound 10 µM, first compound 1 µM", "result": 96.8, "unit": "%"}, {"measurement": "viability, T/C", "setting": "second compound 10 µM, first compound 3.16 µM", "result": 104, "unit": "%"}, {"measurement": "viability, T/C", "setting": "second compound 10 µM, first compound 10 µM", "result": 126, "unit": "%"}]}
{"smiles": "COc1cc(C2c3cc4c(cc3C(OC3OC5COC(C)OC5C(O)C3O)C3COC(=O)C23)OCO4)cc(OC)c1O", "note": "(stereo unspecified)", "values": [{"measurement": "viability, T/C", "setting": "compound 0.0316 µM", "result": "86.7% and 90% and 76.8%"}, {"measurement": "viability, T/C", "setting": "compound 0.1 µM", "result": "108% and 96.2% and 104%"}, {"measurement": "viability, T/C", "setting": "compound 0.316 µM", "result": "94.2% and 108% and 83%"}, {"measurement": "viability, T/C", "setting": "compound 1 µM", "result": "124% and 104% and 96.8%"}, {"measurement": "viability, T/C", "setting": "compound 3.16 µM", "result": "82.7% and 105% and 70.8%"}, {"measurement": "viability, T/C", "setting": "compound 10 µM", "result": "58% and 81.8% and 50.9%"}, {"measurement": "IC50", "setting": "curve of compound", "result": "> 10", "unit": "µM"}]}
{"smiles": "COc1ccc([C@@H](O)c2cc(-c3ncnc4cc(N5CCOCC5)ccc34)c(F)cc2Cl)nn1", "values": [{"measurement": "viability, T/C", "setting": "compound 0.0316 µM", "result": "95.7% and 94.3% and 98.1%"}, {"measurement": "viability, T/C", "setting": "compound 0.1 µM", "result": "92.2% and 99.3% and 91.8%"}, {"measurement": "viability, T/C", "setting": "compound 0.316 µM", "result": "112% and 94.1% and 106%"}, {"measurement": "viability, T/C", "setting": "compound 1 µM", "result": "88.9% and 98.7% and 102%"}, {"measurement": "viability, T/C", "setting": "compound 3.16 µM", "result": "82.5% and 101% and 87.2%"}, {"measurement": "viability, T/C", "setting": "compound 10 µM", "result": "71.8% and 84.8% and 82.2%"}, {"measurement": "IC50", "setting": "curve of compound", "result": "> 10", "unit": "µM"}]}
